Source: the supplement of paper PMC10307832

Key:
Test in all cases: relative viability (nuclei count vs DMSO), 5 days (fraction); higher = more cells survive
[1] = compound: CN1CCN(c2ccc3nc(-c4c(N)c5c(F)cccc5[nH]c4=O)[nH]c3c2)CC1 [Dovitinib]
How it was run: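 Viability was read as treated-well nuclei divided by vehicle-well nuclei, using the median across plates. Lung cancer cell lines in 1536-well plates were kept overnight at 37 °C, pinned with five √10-spaced library-drug doses, and after 5 days were Hoechst-stained, imaged at 4× and counted in MetaXpress. Plates passed only with control CV below 25% and at least one doubling.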

[2] = compound: CN1CCN(c2ccc3nc(-c4c(N)c5c(F)cccc5[nH]c4=O)[nH]c3c2)CC1 [Dovitinib] + N=C(N)NC(=N)NCCc1ccccc1 [Phenformin] (partner 250 µM)
How it was run: (§1)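 Dosing by pin tool came one day after lung cancer cell lines were seeded in 1536-well plates, using either one drug or a fixed anchor-drug dose plus five library-drug doses (not always all listed) in √10 steps. After 5 days, nuclei were counted on 4× images. Relative viability is treated-well nuclei count divided by vehicle-well nuclei count, and values are medians of duplicate plates.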

[3] = compound: CN1CCN(c2ccc3nc(-c4c(N)c5c(F)cccc5[nH]c4=O)[nH]c3c2)CC1 [Dovitinib] + COc1cccc2cc(-c3nc([C@H]4CC[C@H](C(=O)O)CC4)n4ncnc(N)c34)[nH]c12 [OSI-027] (partner 0.5 µM)
How it was run: as §1

[4] = compound: CN1CCN(c2ccc3nc(-c4c(N)c5c(F)cccc5[nH]c4=O)[nH]c3c2)CC1 [Dovitinib] + CC(=O)Nc1cccc(-n2c(=O)n(C3CC3)c(=O)c3c(Nc4ccc(I)cc4F)n(C)c(=O)c(C)c32)c1 [Trametinib] (partner 0.02 µM)
How it was run: as §1

Cell Line	relative viability ([1]; 0.02 µM)	relative viability ([1]; 0.06325 µM)	relative viability ([1]; 0.2 µM)	relative viability ([1]; 0.6325 µM)	relative viability ([1]; 2 µM)	relative viability ([2]; first compound 0.02 µM)	relative viability ([2]; first compound 0.06325 µM)	relative viability ([2]; first compound 0.2 µM)	relative viability ([2]; first compound 0.6325 µM)	relative viability ([2]; first compound 2 µM)	relative viability ([3]; first compound 0.02 µM)	relative viability ([3]; first compound 0.06325 µM)	relative viability ([3]; first compound 0.2 µM)	relative viability ([3]; first compound 0.6325 µM)	relative viability ([3]; first compound 2 µM)	relative viability ([4]; first compound 0.02 µM)	relative viability ([4]; first compound 0.06325 µM)	relative viability ([4]; first compound 0.2 µM)	relative viability ([4]; first compound 0.6325 µM)	relative viability ([4]; first compound 2 µM)
201T	0.895	0.954	0.991	1.02	0.989	0.449	0.42	0.463	0.409	0.459	0.704	0.747	0.748	0.898	0.724	0.706	0.701	0.699	0.748	0.674
A549	0.964	1.04	1.06	0.991	0.966	0.145	0.174	0.284	0.113	0.201	–	–	–	–	–	–	–	–	–	–
A-427	0.918	0.901	1.06	1.06	1.05	0.363	0.3	0.307	0.282	0.347	0.524	0.432	0.455	0.452	0.399	0.724	0.705	0.709	0.768	0.72
ABC-1	0.847	0.953	1.08	1.1	0.924	0.211	0.317	0.243	0.237	0.204	0.445	0.505	0.48	0.448	0.51	–	–	–	–	–
BEN	0.987	0.959	1.14	1.12	0.964	0.248	0.288	0.281	0.296	0.305	0.319	0.302	0.342	0.312	0.287	0.976	0.888	1.01	1.05	1.04
CAL-12T	1.07	1.02	1.02	0.99	1.1	0.585	0.624	0.556	0.616	0.664	0.839	0.768	0.913	0.569	0.742	0.491	0.34	0.413	0.36	0.371
COR-L23	0.967	1.1	0.987	1.06	1.04	0.416	0.467	0.478	0.455	0.507	0.681	0.856	0.835	0.791	0.823	0.568	0.641	0.601	0.532	0.628
COR-L 105	0.924	0.961	1.11	0.97	0.981	0.396	0.52	0.506	0.486	0.62	0.722	0.637	0.649	0.659	0.784	0.533	0.405	0.441	0.459	0.577
Calu-6	0.977	1.01	0.999	0.981	0.959	–	–	–	–	–	–	–	–	–	–	–	–	–	–	–
ChaGo-K-1	0.961	1.06	0.97	1.02	0.995	0.469	0.534	0.499	0.476	0.51	0.549	0.556	0.635	0.542	0.614	0.868	0.875	0.936	0.885	0.778
EKVX	1.01	0.983	1.05	1.04	1.01	0.217	0.225	0.232	0.253	0.236	0.724	0.717	0.731	0.731	0.702	0.395	0.32	0.332	0.351	0.327
EMC-BAC-2	1.06	0.952	0.994	1.01	1.02	0.527	0.482	0.538	0.471	0.542	0.484	0.27	0.409	0.381	0.461	1.2	0.811	0.986	0.873	0.945
EPLC-272H	0.942	0.955	0.976	0.913	0.928	0.323	0.309	0.274	0.384	0.317	0.258	0.336	0.3	0.28	0.241	0.306	0.269	0.298	0.269	0.303
H3255	0.955	1.02	0.997	1.01	1.06	0.378	0.347	0.381	0.372	0.441	0.637	0.601	0.627	0.716	0.585	0.699	0.578	0.746	0.614	0.566
HARA	1.29	0.948	1	1.25	1.01	0.537	0.476	0.47	0.362	0.53	0.628	0.438	0.456	0.538	0.474	0.89	0.924	0.484	0.827	0.878
HCC-15	1.05	0.961	1.07	1.03	1	0.482	0.475	0.502	0.436	0.472	0.658	0.68	0.741	0.656	0.711	0.434	0.342	0.369	0.341	0.377
HCC-44	0.979	0.98	0.991	1	1.03	0.294	0.138	0.174	0.229	0.197	0.538	0.578	0.569	0.485	0.524	1.06	1.07	1.1	1.07	1.02
